Data reported in PubChem BioAssay (NCI).
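Five compound concentrations were applied to cells in 96-well plates for 48 hours; endpoints were derived by simple linear interpolation of the resulting dose-response curve. TGI: total growth inhibition.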

Tests used:
Experiment in all cases: NCI anticancer screen, dose series, 48 h
MALME-3M melanoma = tested on: MALME-3M melanoma
SW-620 colon = tested on: SW-620 colon
T-47D breast = tested on: T-47D breast
LOX IMVI melanoma = tested on: LOX IMVI melanoma
CCRF-CEM leukemia = tested on: CCRF-CEM leukemia
SF-268 CNS = tested on: SF-268 CNS
MDA-N = tested on: MDA-N
BT-549 breast = tested on: BT-549 breast
SN12C renal = tested on: SN12C renal
HOP-92 NSCLC = tested on: HOP-92 NSCLC
RXF 393 renal = tested on: RXF 393 renal
HCT-15 colon = tested on: HCT-15 colon
KM12 colon = tested on: KM12 colon
UO-31 renal = tested on: UO-31 renal
DU-145 prostate = tested on: DU-145 prostate
ACHN renal = tested on: ACHN renal
OVCAR-5 ovarian = tested on: OVCAR-5 ovarian
HT29 colon = tested on: HT29 colon
TK-10 renal = tested on: TK-10 renal
SK-MEL-28 melanoma = tested on: SK-MEL-28 melanoma
K-562 leukemia = tested on: K-562 leukemia
OVCAR-4 ovarian = tested on: OVCAR-4 ovarian
OVCAR-3 ovarian = tested on: OVCAR-3 ovarian
HCC-2998 colon = tested on: HCC-2998 colon
EKVX NSCLC = tested on: EKVX NSCLC
NCI/ADR-RES ovarian = tested on: NCI/ADR-RES ovarian
NCI-H460 lung = tested on: NCI-H460 lung
SF-295 CNS = tested on: SF-295 CNS
PC-3 prostate = tested on: PC-3 prostate
MDA-MB-231 breast = tested on: MDA-MB-231 breast
786-0 renal = tested on: 786-0 renal
MOLT-4 leukemia = tested on: MOLT-4 leukemia
U251 CNS = tested on: U251 CNS
NCI-H23 lung = tested on: NCI-H23 lung
CAKI-1 renal = tested on: CAKI-1 renal
NCI-H522 lung = tested on: NCI-H522 lung
UACC-62 melanoma = tested on: UACC-62 melanoma
A549 NSCLC = tested on: A549 NSCLC
HS 578T breast = tested on: HS 578T breast
HCT-116 colon = tested on: HCT-116 colon
SK-MEL-2 melanoma = tested on: SK-MEL-2 melanoma
SF-539 CNS = tested on: SF-539 CNS
UACC-257 melanoma = tested on: UACC-257 melanoma
OVCAR-8 ovarian = tested on: OVCAR-8 ovarian
SR leukemia = tested on: SR leukemia
M14 melanoma = tested on: M14 melanoma
HL-60(TB) leukemia = tested on: HL-60(TB) leukemia
NCI-H226 lung = tested on: NCI-H226 lung
SK-OV-3 ovarian = tested on: SK-OV-3 ovarian
MCF7 breast = tested on: MCF7 breast
SK-MEL-5 melanoma = tested on: SK-MEL-5 melanoma
MDA-MB-435 = tested on: MDA-MB-435
COLO 205 colon = tested on: COLO 205 colon
SNB-75 CNS = tested on: SNB-75 CNS
SNB-19 CNS = tested on: SNB-19 CNS
IGROV1 ovarian = tested on: IGROV1 ovarian
HOP-62 NSCLC = tested on: HOP-62 NSCLC
RPMI-8226 leukemia = tested on: RPMI-8226 leukemia

C=CC(C)(C)c1cc([C@@H]2COc3cc(O)ccc3C2=O)c(O)c(O)c1OC
TGI (MALME-3M melanoma): 93.6 µM
TGI (SW-620 colon): > 100 µM
TGI (T-47D breast): 62.3 µM
TGI (LOX IMVI melanoma): 66.8 µM
TGI (CCRF-CEM leukemia): > 100 µM
TGI (SF-268 CNS): 37.4 µM
TGI (MDA-N): 51 µM
TGI (BT-549 breast): 32.7 µM
TGI (SN12C renal): 37.6 µM
TGI (HOP-92 NSCLC): 49.4 µM
TGI (RXF 393 renal): 21.1 µM
TGI (HCT-15 colon): 32 µM
TGI (KM12 colon): 40.7 µM
TGI (UO-31 renal): 35.4 µM
TGI (DU-145 prostate): 46.2 µM
TGI (ACHN renal): 31.4 µM
TGI (OVCAR-5 ovarian): > 100 µM
TGI (HT29 colon): 47.4 µM
TGI (TK-10 renal): > 100 µM
TGI (SK-MEL-28 melanoma): 67.2 µM
TGI (K-562 leukemia): > 100 µM
TGI (OVCAR-4 ovarian): 34.2 µM
TGI (OVCAR-3 ovarian): 29.3 µM
TGI (HCC-2998 colon): > 100 µM
TGI (EKVX NSCLC): 99.4 µM
TGI (NCI/ADR-RES ovarian): 64.3 µM
TGI (NCI-H460 lung): > 100 µM
TGI (SF-295 CNS): > 100 µM
TGI (PC-3 prostate): 34.7 µM
TGI (MDA-MB-231 breast): 57.5 µM
TGI (786-0 renal): 31.6 µM
TGI (MOLT-4 leukemia): > 100 µM
TGI (U251 CNS): 40.6 µM
TGI (NCI-H23 lung): 34 µM
TGI (CAKI-1 renal): 27.4 µM
TGI (NCI-H522 lung): 38.1 µM
TGI (UACC-62 melanoma): 34.4 µM
TGI (A549 NSCLC): > 100 µM
TGI (HS 578T breast): > 100 µM
TGI (HCT-116 colon): 32.6 µM
TGI (SK-MEL-2 melanoma): 45.8 µM
TGI (SF-539 CNS): 57.9 µM
TGI (UACC-257 melanoma): > 100 µM
TGI (OVCAR-8 ovarian): 30.9 µM
TGI (SR leukemia): > 100 µM
TGI (M14 melanoma): 46.5 µM
TGI (HL-60(TB) leukemia): 73.3 µM
TGI (NCI-H226 lung): > 100 µM
TGI (SK-OV-3 ovarian): 61 µM
TGI (MCF7 breast): 32.5 µM
TGI (SK-MEL-5 melanoma): 41.1 µM
TGI (MDA-MB-435): 39.2 µM
TGI (COLO 205 colon): 63 µM
TGI (SNB-75 CNS): 56.6 µM
TGI (SNB-19 CNS): 49 µM

COc1ccc2c(c1)CC1Cc3ccccc3CCN1C2 (configuration not stated)
TGI (MALME-3M melanoma): > 100 µM
TGI (SW-620 colon): > 100 µM
TGI (T-47D breast): > 100 µM
TGI (LOX IMVI melanoma): 51.8 µM
TGI (CCRF-CEM leukemia): > 100 µM
TGI (SF-268 CNS): > 100 µM
TGI (MDA-N): > 100 µM
TGI (BT-549 breast): > 100 µM
TGI (SN12C renal): > 100 µM
TGI (HOP-92 NSCLC): > 100 µM
TGI (RXF 393 renal): > 100 µM
TGI (IGROV1 ovarian): > 100 µM
TGI (HCT-15 colon): > 100 µM
TGI (KM12 colon): > 100 µM
TGI (UO-31 renal): > 100 µM
TGI (DU-145 prostate): > 100 µM
TGI (ACHN renal): > 100 µM
TGI (HOP-62 NSCLC): > 100 µM
TGI (RPMI-8226 leukemia): 92.3 µM
TGI (OVCAR-5 ovarian): > 100 µM
TGI (HT29 colon): > 100 µM
TGI (TK-10 renal): > 100 µM
TGI (SK-MEL-28 melanoma): > 100 µM
TGI (K-562 leukemia): > 100 µM
TGI (OVCAR-4 ovarian): > 100 µM
TGI (OVCAR-3 ovarian): > 100 µM
TGI (HCC-2998 colon): > 100 µM
TGI (EKVX NSCLC): > 100 µM
TGI (NCI/ADR-RES ovarian): > 100 µM
TGI (NCI-H460 lung): > 100 µM
TGI (SF-295 CNS): > 100 µM
TGI (PC-3 prostate): > 100 µM
TGI (MDA-MB-231 breast): 63.6 µM
TGI (MOLT-4 leukemia): > 100 µM
TGI (U251 CNS): > 100 µM
TGI (NCI-H23 lung): > 100 µM
TGI (CAKI-1 renal): 59.1 µM
TGI (NCI-H522 lung): 63.6 µM
TGI (UACC-62 melanoma): > 100 µM
TGI (A549 NSCLC): > 100 µM
TGI (HS 578T breast): > 100 µM
TGI (HCT-116 colon): > 100 µM
TGI (SK-MEL-2 melanoma): > 100 µM
TGI (SF-539 CNS): > 100 µM
TGI (UACC-257 melanoma): > 100 µM
TGI (OVCAR-8 ovarian): > 100 µM
TGI (SR leukemia): > 100 µM
TGI (M14 melanoma): > 100 µM
TGI (HL-60(TB) leukemia): > 100 µM
TGI (NCI-H226 lung): > 100 µM
TGI (SK-OV-3 ovarian): > 100 µM
TGI (MCF7 breast): > 100 µM
TGI (SK-MEL-5 melanoma): 41.7 µM
TGI (MDA-MB-435): > 100 µM
TGI (COLO 205 colon): > 100 µM
TGI (SNB-75 CNS): > 100 µM
TGI (SNB-19 CNS): > 100 µM
